{"source": "patent US20150121570A1", "about": "“GENE […] DROUGHT STRESS TOLERANCE AND T[…] WITH THE SAME” (priority 2013, published 2015)", "format_in_all_cases": "in vivo, Arabidopsis thaliana", "key": {"[1]": {"system": "stomata of mature leaves of wild-type and atamdr mutant plants", "assay": "ABA-induced stomatal closure (stomatal aperture measurement)", "settings": "10 μm ABA for 2 h; for stomatal aperture (the ratio of width to length): 4-week-old leaves", "procedure": "(§1) FIGS. 4a to 4c represent stomatal aperture and H2O2 production of wild-type, atamdr plants in response to different concentrations of ABA. […] Light-grown, 4-week-old mature leaves of wild-type and atamdr plants were incubated in stomatal opening solution for 2 h and transferred to solutions containing the 10 μM ABA for 2 h. Stomata on the abaxial surface were observed by light microscopy. […] Leaves from wild-type, atamdr plants were treated with 0 or 100 μM ABA for 2 h and transferred to 100 μg/mL DAB (3,3′-diaminobenzidine-4HCl) solution overnight. The presence and level of H2O2 in the leaves were visualized as a dark brown color.\nMature leaves of light-grown, 4-week-old wild-type and atamdr mutant plants were used for the observation of mature stomata. Detached leaves were incubated in stomatal opening solution (10 mM MES-KOH, […] CaCl2, 10 mM KCl) for 2 h and then transferred to stomatal opening solution supplemented with 0 or 10 μM ABA for 2 h. Subsequently, epidermal strips were mounted on glass slides and observed with a light microscope.\nMature leaves of light-grown, 4-week-old wild-type and atamdr mutant plants were detached and incubated in stomatal opening solution and then transferred to stomatal opening solution supplemented with various concentrations of ABA (0 and 10 μM) for 2 h. […] Stomatal aperture of wild-type plants treated with 10 μm ABA was approximately 0.09 which was 2-fold closed than that of mutant, while stomatal aperture of atamdr mutant treated with 10 μm ABA was approximately 0.175, which was 1.94-fold compared to that of wild-type plants."}, "[2]": {"system": "mature leaves of wild-type and atamdr plants", "assay": "ABA-induced H2O2 production analyzed by DAB staining", "settings": "0 or 100 μM ABA", "procedure": "as §1\nTo investigate the accumulation of H2O2, light-grown, 4-week-old mature leaves of wild-type (WT), atamdr plants were incubated in stomatal opening solution for 2 h and treated with 0 or 100 μM ABA. Leaves were transferred to 100 μg/mL DAB (3,3′-diaminobenzidine-4HCl) solution overnight, and washed and fixed by 96% ethanol. Leaves were observed after complete chlorosis (Luis David Maldonado-Bonilla et al.; Eur J Plant Pathol. 121:439449, 2008).\nTo investigate the accumulation of H2O2, light-grown, 4-week-old mature leaves of wild-type and atamdr plants were treated with 0 or 100 μM ABA, and stained with 100 ng/mL DAB (3,3′-diaminobenzidine-4HCl) solution in dark."}, "AtAIRP2 gene expression": {"system": "AtAIRP2 gene expression", "assay": "Gene expression after ABA treatment by RT-PCR", "settings": "atamdr mutant, 300 μM ABA hormone, 1 hour and 3 hours", "procedure": "FIGS. 2a to 2d represent the expression patterns of AtAMDR in response to various abiotic stress conditions. Total RNA was prepared from light-grown, 7-day-old Arabidopsis seedlings, which had been treated with drought (FIG. 2a), cold (FIG. 2b), high salinity (300 mM NaCl) (FIG. 2c) or 100 μM ABA (FIG. 2d). Induction patterns of AtAMDR were investigated by RT-PCR. RD29A was used as representative control gene for drought, cold and salt stress, and Rab18 was used as control gene for ABA.\nTotal RNA was prepared from 7-day-old Arabidopsis seedlings, which had been treated with drought (1-2 h), cold (4° C. for 6-12 h), high salinity (300 mM NaCl for 1-3 h) or 100 μM ABA (1-3 h). Induction patterns of AtAMDR were investigated by RT-PCR.\nIn order to determine expressions of the AtAMDR gene to drought stress, the wild type Arabidopsis thaliana seedlings which were grown on medium for 2 weeks were exposed in the air, and sampled after 1 hour and 2 hours. In order to determine expressions of the AtAMDR gene to salt stress, the wild type Arabidopsis thaliana seedlings which were grown on medium for 2 weeks were treated with 300 mM sodium chloride, and sampled after 1 hour and 3 hours. […]\nThe AtAIRP2 gene expressions in various abiotic stresses were analyzed by RT-PCR. […]"}}}
{"smiles": "CC1=CC(=O)CC(C)(C)[C@@]1(O)/C=C/C(C)=C\\C(=O)O", "note": "[ABA, abscisic acid]", "values": [{"measurement": "stomatal aperture of atamdr mutant compared to that of wild-type plants", "setting": "[1]", "result": 1.94, "unit": "fold"}, {"measurement": "stomatal aperture (the ratio of width to length)", "setting": "[1]; atamdr mutant", "result": "approximately 0.175"}, {"measurement": "stomatal aperture (the ratio of width to length)", "setting": "[1]; wild-type plants", "result": "approximately 0.09"}, {"measurement": "accumulation of H2O2", "setting": "[2]; atamdr leaves", "result": "significantly delayed"}, {"measurement": "accumulation of H2O2", "setting": "[2]; wild-type leaves", "result": "drastically arisen"}, {"measurement": "AtAIRP2 gene expression", "setting": "AtAIRP2 gene expression", "result": "not affected"}]}
